Columns and labels:
[1] = tested on: MDA-MB-361 human breast cancer xenografts; assay: Antitumor activity in MDA-MB-361 human breast cancer xenografts, various doses and schedules; assay type: in vivo, female athymic nude mice; settings: PO
Method: Objectives of this study: to determine the in vivo antitumor activity of compound A at various doses and schedules in the MDA-MB-361 human breast cancer xenografts after oral (PO) administration in female nude mice.
Compound A was prepared according to methods disclosed in WO 2011/022439 and WO 2013/071272 and stored at approximately 25° C., shielded from light. The control used in this study was 100% PEG400.
Low passage MDA-MB-361 cells were grown in Dulbecco's Modified Eagle's Medium (DMEM) media supplemented with 20% fetal bovine serum (FBS) and 1× penicillin/streptomycin (Invitrogen [Carlsbad, Calif., USA]) until approximately 80% confluency was reached. […]
Four-five week old female athymic nude mice were inoculated SC in flank (cell suspension in serum free DMEM and 50% Matrigel) with 10.0×10^6 MDA-MB-361 cells. Tumor growth was monitored with vernier calipers. The mean TV (MTV) was calculated using the formula V=W^2×L/2.
When tumors reached a mean tumor volume (MTV) of approximately 280 mm^3, mice (n=5/group) were treated with vehicle (PEG400) or compound A (60, 70, 140, or 210 mg/kg) administered concurrently via oral gavage over a 28 day treatment period on the schedules indicated below in Table 2. The percentage of tumor growth inhibition (TGI) and percent body weight (BW) change were determined on Day 28. […]

[2] = Phase 1 clinical study, safety and tolerability (MTD, AEs grade 3 or higher) in patients with advanced solid malignancies; assay type: in vivo
Description: A phase 1 clinical study was initiated to evaluate the safety, tolerability, PK, pharmacodynamics; to determine the maximum tolerated dose (MTD) in each of 3 schedules described below; and to evaluate antitumor activity in patients with advanced solid malignancies.
Inclusion Criteria • Subjects have had their PIK3CA gene mutation status assessed prior to enrolling into the study • Subjects must have documented disease progression prior to enrolling into the study • locally advanced or metastatic solid tumors with the exception of primary brain tumor, and have failed or are not eligible for standard of care therapy. • Age ≧18 years, including males and females; • ECOG performance status (PS) 0-1; • Adequate organ function; • Male subjects must be surgically sterile or must agree to use physician-approved contraception during the study and for 30 days following the last study drug administration; • Ability to swallow oral medications; • Ability to understand and willingness to sign informed consent prior to initiation of any study procedures; • For women of child-bearing potential, negative serum pregnancy test within 14 days prior to the first study drug administration and use of physician-approved method of birth control from 30 days prior to the first study drug administration to 30 days following the last study drug administration
35 patients were enrolled into the dose escalation phase of the study, which is designed to determine the MTD of compound A when given orally on continuous (daily) or intermittent schedules. The MTD for the QD dosing schedule was determined to be 100 mg.
Other than MTD, the other primary outcome measures is the tolerability profile of compound A or the number of adverse events (AE) from the first dose of study drug through 30 days after the last dose of study drug. Plasma levels of compound A is one of the secondary outcome measures.

[3] = tested on: T47D (PIK3CA mutant, ER/PR+) human breast cancer xenografts; assay: Antitumor activity alone and in combination with fulvestrant in T47-D xenografts; assay type: in vivo, NOD-SCID mice; settings: Compound A 70 mg/kg PO QD x 3/wk x 3, Fulvestrant 100 mg/kg SC QW x 3; for TGI (tumor growth inhibition): Day 21 post treatment initiation; for ΔAUC (change in area under the tumor volume-versus-time curves): versus vehicle, 21 day treatment
Description: The control used in this study was 100% PEG400+0.9% Saline. Fulvestrant was formulated in 0.9% saline.
Prior to injection, the cells were detached with Trypsin (Invitrogen), washed twice with phosphate buffered saline (PBS), and resuspended in RPMI (Roswell Park Memorial Institute) media (Invitrogen,) without supplements. Cells were resuspended to a final concentration of 10.0×10^7 cells/ml in DPBS and mixed with 50% Matrigel (BD Biosciences) at 1 to 1 volume. T47-D cells (10.0×10^6 cells/animal in 02-mL injection volume) were implanted S.C. into the right flank of NOD-SCID mice (Harlain Laboratories).
Four-six week old female NOD-SCID mice were inoculated SC in flank (cell suspension in DPBS and 50% Matrigel) with 10.0×10^6 T47-D cells. Tumor growth was monitored with vernier calipers. The mean TV (MTV) was calculated using the formula V=W2×L/2.
The percentage of tumor growth inhibition (TGI) and percent body weight (BW) change were determined on Day 21 and provided in Table 6. Statistical comparisons of tumor growth between the treatment and vehicle groups were conducted using a linear mixed effects regression analysis on the change in area under the tumor volume (TV)-versus—time curves (ΔAUC) values. All p values less than 0.05 were considered significant.
A combination score calculation was used to address the question of whether the effects of the combination treatments were synergistic, additive, subadditive, or antagonistic relative to the individual treatments. The effect was considered synergistic if the synergy score was less than 0, and additive if the synergy score wasn't statistically different from 0.

| Compound | efficacy in reducing tumor size, intermittent regimen versus daily administration ([1]; 28 day treatment, total amount administered comparable in daily and intermittent schedules) | relationship between efficacy (tumor growth inhibition, TGI) and exposure (AUC) between dosing schedules ([1]; single agent, FIG. 3) | maximum tolerated dose (MTD) ([2]; QD (continuous daily) oral dosing schedule) | Abdominal pain, AEs grade 3 or higher ([2]; both, human, in vivo) | Anaemia, AEs grade 3 or higher ([2]; both, human, in vivo) | Chills, AEs grade 3 or higher ([2]; both, human, in vivo) | Decreased appetite, AEs grade 3 or higher ([2]; both, human, in vivo) | Diarrhoea, AEs grade 3 or higher ([2]; both, human, in vivo) | Drug-induced liver injury, AEs grade 3 or higher ([2]; both, human, in vivo) | Hyperglycaemia, AEs grade 3 or higher ([2]; both, human, in vivo) | Nausea, AEs grade 3 or higher ([2]; both, human, in vivo) | Oxygen saturation, AEs grade 3 or higher ([2]; both, human, in vivo) | Transaminases incr'd, AEs grade 3 or higher ([2]; both, human, in vivo) | TGI (tumor growth inhibition) [3] | TGI (tumor growth inhibition) ([3]; listed as compound A) | ΔAUC (change in area under the tumor volume-versus-time curves) [3] |
| --- | --- | --- | --- | --- | --- | --- | --- | --- | --- | --- | --- | --- | --- | --- | --- | --- |
| Nc1nc2cc(-c3ccc4ncc(C(=O)N5CCOCC5)n4c3)ccc2o1 [Compound A, (6-(2-aminobenzo[d]oxazol-5-yl)imidazo[1,2-a]pyridin-3-yl)(morpholino)methanone] | as efficacious in reducing tumor size as daily administration | AUC-driven | 100 mg | 1 (4) n (%) | 1 (5) n (%) | 1 (6) n (%) | 1 (6) n (%) | 1 (6) n (%) | 1 (4) n (%) | 2 n (%) | 1 (6) n (%) | 1 (6) n (%) | 2 (8) n (%) | 52.60% | 52.6% | 61.2 |
| C[C@]12CC[C@@H]3c4ccc(O)cc4C[C@@H](CCCCCCCCC[S+]([O-])CCCC(F)(F)C(F)(F)F)[C@H]3[C@@H]1CC[C@@H]2O (stereo partly drawn) [Fulvestrant, (7α,17β)-7-{9-[(4,4,5,5,5-pentafluoropentyl)sulfinyl]nonyl}estra-1,3,5(10)-triene-3,17-diol, reference compound] |  |  |  |  |  |  |  |  |  |  |  |  |  | 66.70% |  | 108.4 |

Reference: US20160287601A1, “ENHANCED TREATMENT REGIMENS USING PI3K INHIBITORS” (MILLENNIUM PHARMACEUTICALS, INC., priority 2013, published 2016)
